Experimental data taken from ChEMBL document CHEMBL1127158, “1,3-dithianes with acid functionalities: potent inhibitors and candidate affinity probes for the gaba-gated chloride channel” (Bioorg Med Chem Lett, 1993).

The molecules below were run against GABA-A receptor; anion channel (assay: Inhibition of [3H]EBOB binding at GABA-gated chloride channel NCB site in bovine brain membranes).
Assay type: cell membranes, Bos taurus

Row | IC50 | Structure (SMILES)
1 | 76 nM | CC(C)(C)C1CSC(c2ccc(C#CCO)cc2)SC1 (centres undefined)
2 | 6700 nM | CCCC#Cc1ccc(C2SCC(C(C)(C)C)CS2)cc1 (centres undefined)
3 | 3000 nM | CCOP(=O)(CCC#Cc1ccc(C2SCC(C(C)(C)C)CS2)cc1)OCC (centres undefined)
4 | 690 nM | CCC#Cc1ccc(C2SCC(C(C)(C)C)CS2)cc1 (centres undefined)
5 | 460 nM | CCOC(=O)CC#Cc1ccc(C2SCC(C(C)(C)C)CS2)cc1 (centres undefined)
6 | 23 nM | CC(C)(C)C1CSC(c2ccc(C#CCC(=O)O)cc2)SC1 (centres undefined)
7 | > 10000 nM | CC(C)(O)C#Cc1ccc(C2SCC(C(C)(C)C)CS2)cc1 (centres undefined)
8 | 3100 nM | CC(O)C#Cc1ccc(C2SCC(C(C)(C)C)CS2)cc1 (centres undefined)
9 | 21 nM | C#Cc1ccc(C2SCC(C(C)(C)C)CS2)cc1 (centres undefined)
10 | 690 nM | CC(C)(C)C1CSC(c2ccc(C#CC(=O)C=[N+]=[N-])cc2)SC1 (centres undefined)
11 | 10 nM | CC(C)(C)C1CSC(c2ccc(C#CCCP(=O)(O)O)cc2)SC1 (centres undefined)
12 | 17 nM | COC(=O)CCC#Cc1ccc(C2SCC(C(C)(C)C)CS2)cc1 (centres undefined)
13 | 830 nM | CC(C)(C)C1CSC(c2ccc(C#CCCC(=O)C=[N+]=[N-])cc2)SC1 (centres undefined)
14 | 7 nM | CC(C)(C)C1CSC(c2ccc(C#CC(=O)O)cc2)SC1 (centres undefined)
15 | 400 nM | CC(C)(C)C1CSC(c2ccc(C#CCCO)cc2)SC1 (centres undefined)
16 | 5 nM | CC(C)(C)C1CSC(c2ccc(C#CCCC(=O)O)cc2)SC1 (centres undefined)
17 | 9 nM | COC(=O)C#Cc1ccc(C2SCC(C(C)(C)C)CS2)cc1 (centres undefined)
18 | 35 nM | CC#Cc1ccc(C2SCC(C(C)(C)C)CS2)cc1 (centres undefined)
19 | 410 nM | CC(C)(C)C1CSC(c2ccc(C#CCCCO)cc2)SC1 (centres undefined)
